From patent US12409160B1, “Compositions and methods for treatment of peri-implantitis and periodontitis” (Cusp Biosciences, Inc., priority 2025, dated 2025)

Key:
[1] = system: hPDLF / CD14+ monocyte co-culture; assay: TRAP-positive multinucleated osteoclasts on bone slices after seven-day co-culture; type: cell-based, human
Protocol: Culture primary human periodontal-ligament fibroblasts (hPDLFs) and autologous CD14^+ monocytes in a trans-well co-culture that recapitulates the paracrine crosstalk driving osteoclastogenesis. […] At 48 h collect supernatants and lysates.
• a. […] Secondary Read-Outs: • a.

[2] = system: human periodontal-ligament fibroblasts (hPDLFs) and CD14+ monocytes; assay: hPDLF / CD14+ monocyte trans-well co-culture, ELISA of supernatants; type: cell-based
Protocol: Culture primary human periodontal-ligament fibroblasts ([…]) and autologous CD14^+ monocytes in a trans-well co-culture that recapitulates the paracrine crosstalk driving osteoclastogenesis. After 24 h equilibration, expose triplicate wells to: (i) vehicle (0.1% DMSO); […] At 48 h collect supernatants and lysates. • a. […] Secondary Read-Outs: • a.

[3] = system: human periodontal ligament cells (hPDLCs); assay: Cell viability (MTT) of hPDLCs; type: cell-based; conditions: Day 1 (24 h)
[4] = system: RAW 264.7 pre-osteoclasts; assay: Osteoclastogenesis: hPDLC medium on RAW 264.7 pre-osteoclasts, TRAP staining; type: cell-based
[5] = system: hPDLF monolayers; assay: Scratch-wound closure in hPDLF monolayers; type: cell-based, human; conditions: over 24 h after treatment
[6] = cited from earlier work
[7] = system: human periodontal ligament cells (hPDLCs); assay: IL-1β and TNF-α in supernatant (ELISA) of LPS-challenged hPDLCs under CoCl2; type: cell-based; conditions: 2 μM simvastatin, LPS 1 μg/ml, vs LPS-Veh

CS(=O)(=O)c1ccc(Oc2cc(F)cc(C#N)c2)c2c1[C@H](O)[C@H](F)[C@@H]2F [Belzutifan, belzutifan]
cut of osteoclast formation ([1]; at 1 nM): > 60%
cut of RANKL and pro-inflammatory cytokines versus vehicle ([2]; ELISA at 48 h, belzutifan 0.1, 1, 10 nM): ≥ 70%
VEGF preserved, of VEGF seen in vehicle ([2]; VEGF-A secretion, 48 h): ≥ 80%
Viability (% of No-Stim) [3]: > 90%
reduction in osteoclast formation ([4]; at 1%): ≥ 65%
scratch-wound closure kinetics [5]: retain normal closure kinetics
solubility in DMSO ([6]; DMSO, 25° C.): ≈ 77 mg mL-1
solubility in ethanol ([6]; ethanol): sparingly soluble
solubility in water ([6]; water across pH 1-8): practically insoluble

COC(=O)CNC(=O)C(=O)OC [DMOG]
effect on osteoclast formation ([1]; DMOG 1 mM): increases

CCC(C)(C)C(=O)O[C@H]1C[C@@H](C)C=C2C=C[C@H](C)[C@H](CC[C@@H]3C[C@@H](O)CC(=O)O3)[C@H]21 [SIMV, simvastatin]
TRAP+ osteoclasts (cells per well) ([4]; 2 μM simvastatin): 85 cells per well
IL-1β (24 h), decrease (↓) [7]: ↓ 25%
TNF-α (24 h), decrease (↓) [7]: ↓ 20%
